What all share (assay): Post-emergence herbicidal action on harmful plants (greenhouse)
Common to all, as to assay type: in vivo
Settings in all cases: 50 g a.i./ha, visual scoring after about 3 to 4 weeks

Assay [1] deals with Chenopodium album. On the procedure:
(§1) 1. Post-emergence herbicidal action on harmful plants
(§2) Seeds of monocotyledonous and dicotyledonous harmful plants are placed in sandy loam soil in cardboard pots, covered with soil and grown in a greenhouse under good growth conditions. Two to three weeks after sowing, the test plants are treated at the three-leaf stage. The compounds according to the invention which were formulated as wettable powders or emulsion concentrate are sprayed, at one of the dosages given in Tables 1 to 5, onto the surface of the green parts of the plants at an application rate of from 600 to 800 1 of water/ha (converted). After the test plants had remained in the greenhouse for about 3 to 4 weeks under optimum growth conditions, the effect of the preparations is scored visually by comparison with compounds disclosed in the prior art. As shown by the results of Comparative Tables 1 to 4, the selected compounds according to the invention have better herbicidal activity against a broad spectrum of economically important monocotyledonous and dicotyledonous harmful plants than the compounds disclosed in the prior art.

Assay [2] concerns Polygonum convolvulus. As for the experimental part:
as §1, §2

For assay [3], the system named is Stellaria media. On the procedure: as §1, §2

This is an account of results in patent US6420317B1, “Benzoylpyrazoles and their use as herbicides” (Aventis CropScience GmbH, priority 2000, dated 2002).

Structures are written as SMILES.

Take `Cc1nn(C)c(O)c1C(=O)c1ccc(S(C)(=O)=O)cc1` [Compound S2]: the “Damage to the harmful plants in % CHEAL” value in assay [1] turned out to be 0%. In addition, the “Damage to the harmful plants in % POLCO” value in assay [2] is reported as 10%. In assay [3], the “Damage to the harmful plants in % STEME” value is listed as 10%.
